Consider eleven compounds from ChEMBL document CHEMBL1201862, “PubChem BioAssay data set” (2004).

Test systems include A549; ACHN; EKVX; HCC 2998; HCT-15; HT-29; LOX IMVI; Malme-3M; OVCAR-5; SF-539; SK-MEL-5; SN12C; U-251; SK-OV-3; UACC-257; HOP-92.
Holding throughout (experiment): NCI tumour cell line growth inhibition, 48 h

SMILES strings stand for the structures.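 Exposure lasted 48 hours, with cells grown in 96-well plates and compounds tested at five concentrations. The concentration for 50% growth inhibition is given as GI50.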 Active and inactive are the calls of the source. Cut-off read from the data, not from the text of the source: active = GI50 up to about 1.1 µM and inactive = higher. Where only a bound is given, the exact number is not on record here.

Consider `C[s+]1c2ccccc2c2ccccc21`, for which the GI50 in the test on A549 is > 100 µM (inactive); in the test with ACHN, > 100 µM (inactive); with EKVX it was > 100 µM (inactive); in the test on HCC 2998, > 100 µM (inactive); in the test with HCT-15, 92 µM; in the test with HT-29, > 100 µM (inactive). Also, the GI50 with LOX IMVI, in the test with Malme-3M, with OVCAR-5, in the test with SF-539, with SK-MEL-5 and in the test with SN12C was > 100 µM (inactive) each time. Further, the GI50 with U-251 is > 100 µM (inactive).
For the compound `CC(C)=CC(=O)CC(=O)C(=O)Nc1ccc(Cl)c(Cl)c1`, the GI50 in the test with A549 was > 100 µM (inactive); in the test with ACHN, > 100 µM (inactive); in the test on EKVX it was > 100 µM (inactive); in the test on HCC 2998, > 100 µM (inactive); in the test on HCT-15, greater than 100 µM; in the test with HT-29, > 100 µM (inactive). For the same compound, the GI50 with Malme-3M, in the test on OVCAR-5, in the test with SF-539, in the test with SK-OV-3, with SN12C and with U-251 was > 100 µM (inactive) throughout. Further, the GI50 with UACC-257 was > 100 µM (inactive).
With `N=C(N)NS(=O)(=O)c1ccc(NC(=O)c2cccc3c(Nc4ccc(S(=O)(=O)N=C(N)N)cc4)c4ccccc4nc23)cc1`, the GI50 was 79.1 µM (inactive) in the test on A549; 51.1 µM (inactive) in the test on ACHN; 71 µM (inactive) with EKVX; greater than 100 µM in the test on HCT-15; > 100 µM (inactive) with HOP-92; 42.1 µM (inactive) with HT-29. Also, the GI50 with LOX IMVI was 43.3 µM (inactive); in the test on Malme-3M, > 100 µM (inactive); with OVCAR-5, > 100 µM (inactive); with SF-539, 41.1 µM (inactive); with SK-MEL-5, 22.2 µM (inactive); with SK-OV-3 it was 72.6 µM (inactive). The values for the GI50 in the test with SN12C, with U-251 and in the test on UACC-257 were > 100 µM (inactive), 28.8 µM (inactive) and > 100 µM (inactive), respectively.
For the compound `CC(O)CNC(=O)C(C)Oc1ccc(OCC2CCCCC2)cc1` (configuration not stated), the GI50 with A549 was > 100 µM (inactive); in the test with ACHN, > 100 µM (inactive); in the test with HCC 2998 it was > 100 µM (inactive); in the test on HCT-15, greater than 100 µM; in the test with HT-29 it was > 100 µM (inactive); with LOX IMVI it was > 100 µM (inactive). Moreover, the GI50 in the test on Malme-3M, with SF-539, in the test with SK-MEL-5, in the test on SK-OV-3, in the test with SN12C and in the test with U-251 was > 100 µM (inactive) throughout. Besides, the GI50 in the test with UACC-257 is 73.6 µM (inactive).
For `CC[C@H](C)N(CCN)C(=O)c1cc2ccccc2c(-c2ccccc2Cl)n1`, the GI50 is 4.41 µM (inactive) with A549; 14.9 µM (inactive) in the test on ACHN; 11.5 µM (inactive) in the test on EKVX; 2.72 µM (inactive) in the test with HCC 2998; 4.42 µM with HCT-15; 7.74 µM (inactive) with HT-29. Also, the GI50 with LOX IMVI is 14.3 µM (inactive); in the test with OVCAR-5, 14.7 µM (inactive); in the test on SF-539, 2.15 µM (inactive); in the test on SN12C it was 18.2 µM (inactive); with U-251, 11.6 µM (inactive); in the test on UACC-257 it was 1.91 µM (inactive).
Regarding `CC(C)(C)/N=C\N(C=C(c1ccccc1)c1ccccc1)C1CCCCC1`, the GI50 in the test on A549 is 81.3 µM (inactive); in the test on ACHN, 36.4 µM (inactive); in the test on EKVX, 93.1 µM (inactive); with HCT-15 it was 28.5 µM; with HOP-92 it was 17.9 µM (inactive); in the test on HT-29 it was 25.9 µM (inactive). In addition, the GI50 in the test on LOX IMVI is 25.2 µM (inactive); in the test with Malme-3M, 17.1 µM (inactive); with OVCAR-5, 35.1 µM (inactive); with SF-539, 50.5 µM (inactive); in the test on SK-MEL-5 it was 16.5 µM (inactive); in the test with SN12C it was 43.4 µM (inactive). Further, the GI50 is 32.1 µM (inactive) in the test with U-251 and 33.3 µM (inactive) in the test with UACC-257.
In the case of `O=C1c2ccccc2C(=O)N1CC#CCO`, the GI50 with A549 is > 100 µM (inactive); with ACHN, > 100 µM (inactive); with EKVX, > 100 µM (inactive); in the test on HCT-15 it was greater than 100 µM; in the test on HT-29 it was > 100 µM (inactive); with OVCAR-5, > 100 µM (inactive). The GI50 in the test on SF-539 was > 100 µM (inactive); in the test with SK-MEL-5, > 100 µM (inactive); with SK-OV-3, 95.5 µM (inactive); in the test on SN12C it was > 100 µM (inactive); in the test with U-251, > 100 µM (inactive); with UACC-257, > 100 µM (inactive).
Turning to `CCN(CC)CCC(=O)NC1c2ccccc2Oc2c(C)cccc21` (configuration not stated), the GI50 with A549 is > 100 µM (inactive); with ACHN it was > 100 µM (inactive); in the test on EKVX, > 100 µM (inactive); in the test on HCC 2998, > 100 µM (inactive); with HCT-15, greater than 100 µM; in the test on HT-29 it was > 100 µM (inactive). For the same compound, the GI50 with LOX IMVI, with OVCAR-5, in the test on SF-539, in the test with SK-MEL-5, with SK-OV-3 and in the test with SN12C was > 100 µM (inactive) in each case. The GI50 with U-251 and in the test on UACC-257 was > 100 µM (inactive) throughout.
On to `Cn1ccnc1C(c1nccn1C)C(C)(C)[N+](=O)[O-]`, for which the GI50 in the test with A549 was > 100 µM (inactive); with ACHN, > 100 µM (inactive); in the test with EKVX it was > 100 µM (inactive); in the test on HCC 2998, > 100 µM (inactive); in the test with HCT-15, greater than 100 µM; in the test on HOP-92 it was > 100 µM (inactive). The GI50 in the test with LOX IMVI, in the test with SF-539, in the test on SK-MEL-5, with SK-OV-3, in the test with SN12C and in the test with U-251 was > 100 µM (inactive) each time. For the same compound, in the test on UACC-257, the GI50 is > 100 µM (inactive).
As for `CCOC(=O)/C(=C\c1ccc(N(CCC#N)CCC#N)cc1C)NC(=O)/C=C/c1ccccc1`, the GI50 in the test on A549 is > 100 µM (inactive); with ACHN, > 100 µM (inactive); in the test with EKVX it was > 100 µM (inactive); in the test on HCC 2998, 62.2 µM (inactive); with HCT-15 it was greater than 100 µM; with HT-29 it was > 100 µM (inactive). The GI50 with LOX IMVI, in the test with Malme-3M, in the test with OVCAR-5, with SF-539, in the test with SK-MEL-5 and in the test with SK-OV-3 was > 100 µM (inactive) each time. Also, the GI50 in the test with SN12C, in the test on U-251 and in the test with UACC-257 was > 100 µM (inactive) each time.
As to `OCC1OC2c3ccccc3COC2C1OCc1ccccc1` (configuration not stated), the GI50 in the test with A549 is > 100 µM (inactive); in the test on ACHN it was > 100 µM (inactive); in the test on EKVX, > 100 µM (inactive); in the test with HCC 2998 it was > 100 µM (inactive); in the test on HCT-15, greater than 100 µM; with HT-29, > 100 µM (inactive). Further, the GI50 in the test on Malme-3M is > 100 µM (inactive); in the test with OVCAR-5, > 100 µM (inactive); with SK-MEL-5, 38.1 µM (inactive); in the test on SK-OV-3 it was > 100 µM (inactive); in the test with SN12C it was > 100 µM (inactive); in the test with U-251, > 100 µM (inactive). Further, the GI50 in the test on UACC-257 was 37 µM (inactive).
